Laboratory results as given in article PMC5944384 (Chemical Science, 2018).

Experiments:
[1] = test system: 2008 ovarian adenocarcinoma cells (cisplatin sensitive); assay: MTT cytotoxicity test, 72 h; type: cell-based, human; conditions: read-out: IC50 2008 ovary
[2] = test system: BCPAP thyroid cancer cells; assay: MTT cytotoxicity test, 72 h; type: cell-based, human; conditions: read-out: IC50 BCPAP thyroid
[3] = test system: PSN-1 3D spheroids; assay: Cytotoxicity in 3D spheroid cultures, APH test; conditions: for IC50: read-out: IC50 PSN-1 3D, spheroids, 72 hours
[4] = test system: PSN-1 pancreatic cancer cells; assay: MTT cytotoxicity test, 72 h; type: cell-based, human; conditions: read-out: IC50 PSN-1 pancreas
[5] = test system: C13* ovarian cancer cells (cisplatin resistant); assay: MTT cytotoxicity test, 72 h; type: cell-based, human; conditions: for Resistant factor (RF): IC50 resistant/parent line, C13*/2008; for IC50: read-out: IC50 C13* ovary, MTT, 72 h
[6] = test system: HEK293 cells; assay: MTT cytotoxicity test in non-cancerous cells; type: cell-based, human; conditions: for Selectivity index (SI) BCPAP: IC50 non-tumor (HEK293)/tumor cell line BCPAP; for Selectivity index (SI) LoVo: IC50 non-tumor (HEK293)/tumor cell line LoVo; for Selectivity index (SI) PSN-1: IC50 non-tumor (HEK293)/tumor cell line PSN-1; for IC50: read-out: IC50 HEK293, MTT, 72 h, non-cancerous cells
[7] = test system: panel of human cancer cell lines (HCT-15, BCPAP, PSN-1, LoVo, 2008, C13*); assay: MTT cytotoxicity test, average over the six cell lines; type: cell-based; conditions: for IC50: read-out: Average IC50, average of one compound over the six cell lines
[8] = test system: HCT-15 colon cancer cells; assay: MTT cytotoxicity test, 72 h; type: cell-based, human; conditions: read-out: IC50 HCT-15 colon
[9] = test system: LoVo colon cancer cells; assay: MTT cytotoxicity test, 72 h; type: cell-based, human; conditions: read-out: IC50 LoVo colon
[10] = test system: HEK293 cells; assay: ROS production in non-cancerous cells; type: cell-based, human; conditions: 10 µM
[11] = test system: HEK293 cells; assay: Mitochondrial membrane potential in non-cancerous cells; type: cell-based, human; conditions: 24 h, 1 µM
[12] = target: T1, COX-2 (Homo sapiens, UniProt P35354); assay: COX-2 inhibition in treated cells; type: cell-based; conditions: PSN-1 cells, 24 h, 1 μM
T1 sequence (P35354 18-604): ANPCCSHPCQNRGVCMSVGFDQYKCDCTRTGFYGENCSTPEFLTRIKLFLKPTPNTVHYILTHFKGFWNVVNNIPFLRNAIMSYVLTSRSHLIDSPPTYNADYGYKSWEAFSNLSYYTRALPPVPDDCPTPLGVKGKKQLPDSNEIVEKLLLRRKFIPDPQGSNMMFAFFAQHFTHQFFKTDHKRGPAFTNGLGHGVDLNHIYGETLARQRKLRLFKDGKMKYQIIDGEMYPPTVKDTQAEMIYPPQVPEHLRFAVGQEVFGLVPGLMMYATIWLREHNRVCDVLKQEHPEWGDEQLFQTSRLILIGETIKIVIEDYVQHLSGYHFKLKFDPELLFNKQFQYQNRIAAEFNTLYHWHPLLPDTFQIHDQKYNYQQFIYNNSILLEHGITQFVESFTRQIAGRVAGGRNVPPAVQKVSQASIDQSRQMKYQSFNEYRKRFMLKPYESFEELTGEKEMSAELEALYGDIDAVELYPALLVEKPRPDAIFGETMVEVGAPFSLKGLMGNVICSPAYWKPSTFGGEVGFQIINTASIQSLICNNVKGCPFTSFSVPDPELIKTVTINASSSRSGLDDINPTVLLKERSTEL

[13] = test system: LoVo OXP colon cancer cells; assay: MTT cytotoxicity test, oxaliplatin resistant cells; type: cell-based, human; conditions: IC50 resistant/parent line
[14] = test system: PSN-1 cells; assay: ROS production; type: cell-based, human; conditions: 10 μM, compared with antimycin A
[15] = Stability in phosphate buffer at 37 °C monitored by HPLC; type: physicochemical; conditions: pH 7, HPLC, followed over days
[16] = test system: PSN-1 cells; assay: Mitochondrial membrane potential; type: cell-based, human; conditions: 24 h, 1 μM

Compound	IC50 [1] [µM]	IC50 [2] [µM]	IC50 [3] [µM]	IC50 [4] [µM]	Resistant factor (RF) [5]	IC50 [5] [µM]	Selectivity index (SI) BCPAP [6]	Selectivity index (SI) LoVo [6]	Selectivity index (SI) PSN-1 [6]	IC50 [6] [µM]	IC50 [7] [µM]	IC50 [8] [µM]	IC50 [9] [µM]	other results
[NH2][Pt]([NH2])([Cl])[Cl] [CDDP, Cisplatin]	2.22 ± 1.02	7.38 ± 1.53	52.6 ± 3.78	18.2 ± 3.11	10.1	22.5 ± 3.15	2.6	2.1	1.1	19.6 ± 2.33	12.5	15.3 ± 2.63	9.15 ± 2.07	–
[NH2][Pt]([NH2])([Cl])([Cl])([O]C(=O)CCCc1ccccc1)[O]C(=O)C(Cl)Cl [CPD, ctc-[Pt(NH3)2(PhB)(DCA)Cl2]]	0.33 ± 0.04	0.11 ± 0.03	0.95 ± 1.12	0.1 ± 0.02	1.8	0.58 ± 0.06	14.2	82.1	15.6	1.56 ± 0.22	0.37	1.06 ± 0.13	0.019 ± 0.01	Times more active than cisplatin in PSN-1 3D spheroids ([3]; 72 hours): more than 50 fold; Induction of cellular ROS production [10]: barely effective; Effect on mitochondrial membrane potential [11]: barely effective; COX-2 inhibition [12]: 8.4%; Resistant factor (RF) [13]: < 2; Increase in cellular basal ROS production [14]: only slightly inferior to that elicited by antimycin A; Stability in phosphate buffer solution [15]: stable; Cells with hypopolarized mitochondrial membrane potential [16]: 25–30%; Average IC50, times lower than cisplatin ([7]; average over six cell lines): 34 fold; Average IC50, times lower than oxaliplatin ([7]; average over six cell lines): 9 fold; Average IC50, times more potent than CVD ([7]; average over six cell lines): 3 fold
O=C1[O][Pt]2([NH][C@@H]3CCCC[C@H]3[NH]2)[O]C1=O [OXP, oxaliplatin]	1.53 ± 0.88	4.37 ± 1.07	–	8.25 ± 3.42	2.0	3.06 ± 1	–	–	–	–	3.23	1.15 ± 0.43	1.01 ± 0.34	–
